Values quoted from earlier work as cited in patent publication US20090197955A1, “METHODS OF IMPROVING DHA DEPOSITION AND RELATED FUNCTION AND/OR DEVELOPMENT” (Monsanto Company, priority 2008, published 2009).

Details: cited from earlier work

Compound: CC/C=C\C/C=C\C/C=C\C/C=C\CCCCC(=O)O [SDA, stearidonic acid]
- Amount of SDA relative to EPA needed to enrich blood tissues with an equivalent amount of EPA: 3 times
